Calls of active or inactive are those of the source.
Assays:
[1] = intracellular Trypanosoma cruzi inhibitors in host cells – cell-based, plate reader, cherry-pick samples, set 3, dose response (AID 651818); assay type: functional;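 also: compounds incubated with infected cells for about four days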
[2] = THP-1 cell cytotoxicity, dose response, cytotoxicity control for non-replicating M. tuberculosis project (AID 489025); assay type: functional
[3] = molecular target: T1, Endoribonuclease toxin MazF (Escherichia coli K-12, UniProt P0AE70); test: activation of MazEF endoribonuclease cleavage – biochemical, fluorescence, single-stranded RNA substrate, uHTS hits, dose response (AID 588481); assay type: functional
T1 sequence (P0AE70 whole entry): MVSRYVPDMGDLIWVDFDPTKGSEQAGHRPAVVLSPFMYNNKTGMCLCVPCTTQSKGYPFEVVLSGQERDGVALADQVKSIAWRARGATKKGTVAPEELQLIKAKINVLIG

[4] = molecular target: T1, Endoribonuclease toxin MazF; test: substrate-only fluorescence increase artefacts – biochemical, single-stranded RNase substrate, counter-screen for MazEF activator project, dose response (AID 588502); assay type: functional
[5] = molecular target: T2, Fatty acid synthase (Homo sapiens, UniProt P49327); test: inhibition of human FAS-TE enzyme activity – biochemical, endpoint fluorescence intensity, uHTS hits, dose response (AID 624327); assay type: functional;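 also: fluorescence from hydrolysis of an O-methyl fluorescein acyl ester substrate by the enzyme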
[6] = molecular target: T2, Fatty acid synthase; test: inhibition of human FAS-TE enzyme activity – biochemical, kinetic fluorescence intensity, dose response (AID 624326); assay type: functional;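 also: rate of fluorescence rise from hydrolysis of a fluorogenic O-methyl fluorescein ester substrate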
[7] = HEK-293T cell viability reduction – luminescence, B-cell screen hits, cytotoxicity control for BCR NF-kB inhibitor project, dose response (AID 489021); assay type: functional, cell-based;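 also: HEK-293T cells carrying an NF-kB luciferase reporter; cells exposed to compound for about 14 hours before viability readout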
[8] = test system: INS1; test: INS-1E survival protection against cytokine death – cell-based, luminescence, retest, dose response (AID 449756); assay type: functional; conditions: Rattus norvegicus;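 also: cell death triggered by IL-1 beta plus TNF-alpha plus IFN-gamma mixture; protective hits raise ATP signal compared with cytokine alone wells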
[9] = reduction of Shn3 3'UTR-driven luciferase in osteoblasts – cell-based, Clone20 osteoblasts, firefly luciferase, cherry-picked, dose response (AID 624132); assay type: functional;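 also: firefly luciferase luminescence from reporter carrying the Shn3 3'UTR in osteoblasts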
[10] = loss of viability in HepG2 cells – cell-based, CellTiter-Glo, cherry-picked, cytotoxicity control for Shn3 inhibitor project, dose response (AID 624134); assay type: functional
[11] = non-specific 3'UTR reporter inhibition in Clone20-Shn3RL – cell-based, Renilla luciferase, cherry-picked, counter-screen for Shn3 inhibitor project, dose response (AID 624133); assay type: functional
[12] = molecular target: Peroxisome proliferator-activated receptor gamma/Nuclear receptor coactivator 1 (Homo sapiens, UniProt P37231); test: (§1) TR-FRET dose response biochemical High Throughput Screening assay for agonists of the steroid receptor coactivator 1 (SRC-1) recruitment by the peroxisome proliferator-activated receptor gamma (PPAR gamma): non-selective agonists. [Related pubchem assays (depositor defined):AID1300, AID1808, AID504735, AID631]; assay type: protein assay
Sequence of Peroxisome proliferator-activated receptor gamma/Nuclear receptor coactivator 1 (P37231 whole entry): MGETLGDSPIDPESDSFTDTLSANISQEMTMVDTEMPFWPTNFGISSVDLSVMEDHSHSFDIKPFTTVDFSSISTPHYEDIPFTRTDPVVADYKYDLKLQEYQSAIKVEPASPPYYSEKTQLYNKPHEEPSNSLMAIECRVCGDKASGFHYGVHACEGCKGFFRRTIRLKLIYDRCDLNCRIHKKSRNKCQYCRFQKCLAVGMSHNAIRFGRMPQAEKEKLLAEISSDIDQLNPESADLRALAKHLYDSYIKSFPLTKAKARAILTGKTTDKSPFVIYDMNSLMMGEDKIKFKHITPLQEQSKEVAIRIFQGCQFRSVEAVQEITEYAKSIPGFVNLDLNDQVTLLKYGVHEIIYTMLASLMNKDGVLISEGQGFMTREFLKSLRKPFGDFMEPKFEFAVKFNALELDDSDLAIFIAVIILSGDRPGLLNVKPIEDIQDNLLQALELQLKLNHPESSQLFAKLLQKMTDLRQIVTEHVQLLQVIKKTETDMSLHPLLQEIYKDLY
Sequence of Peroxisome proliferator-activated receptor gamma/Nuclear receptor coactivator 1 (Q15788 whole entry, further chain): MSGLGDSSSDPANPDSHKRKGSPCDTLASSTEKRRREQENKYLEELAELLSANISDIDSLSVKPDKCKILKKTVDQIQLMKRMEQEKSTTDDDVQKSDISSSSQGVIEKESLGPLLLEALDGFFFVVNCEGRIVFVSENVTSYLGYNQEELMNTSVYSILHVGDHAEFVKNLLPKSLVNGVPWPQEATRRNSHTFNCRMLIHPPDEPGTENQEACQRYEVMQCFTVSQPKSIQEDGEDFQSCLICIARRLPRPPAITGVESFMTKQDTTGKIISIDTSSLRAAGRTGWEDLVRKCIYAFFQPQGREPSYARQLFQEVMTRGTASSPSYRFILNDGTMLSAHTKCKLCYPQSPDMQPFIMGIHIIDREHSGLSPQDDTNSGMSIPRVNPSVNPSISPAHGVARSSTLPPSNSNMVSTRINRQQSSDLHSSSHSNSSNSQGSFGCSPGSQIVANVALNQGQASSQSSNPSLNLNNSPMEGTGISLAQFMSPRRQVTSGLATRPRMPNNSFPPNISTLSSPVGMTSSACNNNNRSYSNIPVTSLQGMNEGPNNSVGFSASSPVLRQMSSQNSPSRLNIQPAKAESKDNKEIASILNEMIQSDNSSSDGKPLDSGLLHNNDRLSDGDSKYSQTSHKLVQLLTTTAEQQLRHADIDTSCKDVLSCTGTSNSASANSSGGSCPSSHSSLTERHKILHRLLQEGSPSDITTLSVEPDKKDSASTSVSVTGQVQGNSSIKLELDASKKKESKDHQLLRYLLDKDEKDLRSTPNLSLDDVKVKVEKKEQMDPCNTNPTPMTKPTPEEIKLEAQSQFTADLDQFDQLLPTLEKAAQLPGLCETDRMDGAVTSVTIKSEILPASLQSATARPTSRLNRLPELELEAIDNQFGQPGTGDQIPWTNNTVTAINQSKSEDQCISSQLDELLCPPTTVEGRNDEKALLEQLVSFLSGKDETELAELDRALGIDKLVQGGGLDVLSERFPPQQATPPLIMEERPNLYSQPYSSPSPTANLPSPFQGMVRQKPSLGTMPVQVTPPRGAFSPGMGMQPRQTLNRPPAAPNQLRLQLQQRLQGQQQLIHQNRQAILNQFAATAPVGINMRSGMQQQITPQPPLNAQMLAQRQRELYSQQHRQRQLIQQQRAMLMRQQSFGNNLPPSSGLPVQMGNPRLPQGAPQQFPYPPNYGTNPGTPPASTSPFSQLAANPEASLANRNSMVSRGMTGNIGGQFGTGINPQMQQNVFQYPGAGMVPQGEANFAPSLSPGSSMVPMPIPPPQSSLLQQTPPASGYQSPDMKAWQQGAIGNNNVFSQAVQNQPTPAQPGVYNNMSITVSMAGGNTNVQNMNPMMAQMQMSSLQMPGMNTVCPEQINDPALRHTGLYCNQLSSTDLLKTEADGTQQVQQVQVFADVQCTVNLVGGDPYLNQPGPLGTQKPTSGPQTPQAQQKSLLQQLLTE

[13] = molecular target: Peroxisome proliferator-activated receptor gamma/Nuclear receptor coactivator 3 (Homo sapiens, UniProt P37231); test: as §1, with “3 (SRC-3)” for “1 (SRC-1)”, “assays: 1301 (Confirmation screen.), 1048 (Primary screen.)]” for “assays (depositor defined):AID1300, AID1808, AID504735, AID631]”; assay type: functional
Sequence of Peroxisome proliferator-activated receptor gamma/Nuclear receptor coactivator 3 (P37231 whole entry): as the sequence (P37231 whole entry) above
Sequence of Peroxisome proliferator-activated receptor gamma/Nuclear receptor coactivator 3 (Q9Y6Q9 whole entry, further chain): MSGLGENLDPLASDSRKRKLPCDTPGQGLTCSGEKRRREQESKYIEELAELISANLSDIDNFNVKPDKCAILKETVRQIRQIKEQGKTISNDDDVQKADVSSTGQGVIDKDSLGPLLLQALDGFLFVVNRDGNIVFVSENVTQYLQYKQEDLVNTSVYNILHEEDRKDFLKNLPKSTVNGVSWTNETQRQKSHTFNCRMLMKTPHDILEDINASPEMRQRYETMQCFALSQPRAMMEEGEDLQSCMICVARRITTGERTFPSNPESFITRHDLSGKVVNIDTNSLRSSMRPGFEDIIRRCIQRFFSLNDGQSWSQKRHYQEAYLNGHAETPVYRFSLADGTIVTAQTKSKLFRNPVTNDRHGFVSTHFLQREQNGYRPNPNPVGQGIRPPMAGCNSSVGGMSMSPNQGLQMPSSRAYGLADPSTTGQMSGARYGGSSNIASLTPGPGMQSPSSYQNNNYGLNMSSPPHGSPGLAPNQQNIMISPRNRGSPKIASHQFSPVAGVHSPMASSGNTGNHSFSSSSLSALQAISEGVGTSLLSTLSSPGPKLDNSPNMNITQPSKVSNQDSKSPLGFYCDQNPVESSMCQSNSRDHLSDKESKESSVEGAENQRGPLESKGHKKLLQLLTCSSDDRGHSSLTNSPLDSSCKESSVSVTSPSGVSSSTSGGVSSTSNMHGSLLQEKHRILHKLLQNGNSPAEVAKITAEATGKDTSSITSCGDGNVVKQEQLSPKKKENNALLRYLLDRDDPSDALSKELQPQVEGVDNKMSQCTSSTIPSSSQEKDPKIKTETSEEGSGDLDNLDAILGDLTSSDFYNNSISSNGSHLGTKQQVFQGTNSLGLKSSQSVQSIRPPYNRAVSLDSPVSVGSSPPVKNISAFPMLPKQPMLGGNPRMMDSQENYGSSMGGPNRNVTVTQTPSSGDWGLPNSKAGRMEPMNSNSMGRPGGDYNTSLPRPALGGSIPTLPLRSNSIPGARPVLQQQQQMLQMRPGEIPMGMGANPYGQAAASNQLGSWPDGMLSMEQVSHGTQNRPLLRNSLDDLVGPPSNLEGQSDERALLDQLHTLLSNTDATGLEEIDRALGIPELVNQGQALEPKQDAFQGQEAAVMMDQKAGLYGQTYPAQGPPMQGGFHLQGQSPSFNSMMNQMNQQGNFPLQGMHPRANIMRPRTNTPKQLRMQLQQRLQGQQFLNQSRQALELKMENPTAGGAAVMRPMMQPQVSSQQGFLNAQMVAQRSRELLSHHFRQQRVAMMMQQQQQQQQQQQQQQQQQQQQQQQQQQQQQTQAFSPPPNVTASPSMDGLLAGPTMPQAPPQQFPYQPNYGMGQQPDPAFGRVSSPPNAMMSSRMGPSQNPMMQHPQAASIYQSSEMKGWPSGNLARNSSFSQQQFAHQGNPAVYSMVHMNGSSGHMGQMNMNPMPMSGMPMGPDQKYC

[14] = molecular target: Peroxisome proliferator-activated receptor gamma/Nuclear receptor coactivator 2 (Homo sapiens, UniProt P37231); test: TR-FRET dose response biochemical High Throughput Screening assay for agonists of the steroid receptor coactivator 2 (SRC-2) recruitment by the peroxisome proliferator-activated receptor gamma (PPAR gamma): non-selective agonists. [Related pubchem assays: 1297, 1032 ]; assay type: functional
[15] = blockers of bursicon-stimulated LGR2 cAMP reporter – cell-based, HEK293, CRE-luciferase reporter, cherry pick, set 2, dose response (AID 743343); assay type: functional;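 also: transfected cells were stimulated with diluted bursicon conditioned medium after compound addition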
[16] = blockade of melanocortin 4 receptor signaling – cell-based, plate reader, cherry pick, counter-screen for LGR2 antagonist project, dose response (AID 743444); assay type: functional;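 also: transfected HEK 293 cells stimulated with alpha-MSH peptide; potency of inhibitors of the alpha-MSH evoked signal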
[17] = luciferase reporter signal suppression in cells – H4 neuroglioma cells, luminescence, dose response (AID 1990); assay type: functional, cell-based
[18] = Luminescence Cell-Based Dose Response HTS to Identify Inhibitors of 5'UTR Stem-Loop Driven Prion Protein mRNA Translation in H4 Neuroglioblastoma Cells. [Related pubchem assays: 1827 (Project Summary), 1813 (Primary HTS)]; assay type: functional
[19] = alpha-synuclein stem-loop luciferase translation blockers – H4 neuroglioma cells, luminescence, confirmation (AID 1988); assay type: functional, cell-based
[20] = molecular target: Eukaryotic translation initiation factor 4E (Mus musculus, UniProt P63073); test: blockers of eIF4G binding by eIF4E – biochemical, TR-FRET, dose response (AID 855); assay type: functional;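 also: potency for disrupting eIF4E binding to eIF4GI seen as loss of FRET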
Sequence of Eukaryotic translation initiation factor 4E (P63073 whole entry): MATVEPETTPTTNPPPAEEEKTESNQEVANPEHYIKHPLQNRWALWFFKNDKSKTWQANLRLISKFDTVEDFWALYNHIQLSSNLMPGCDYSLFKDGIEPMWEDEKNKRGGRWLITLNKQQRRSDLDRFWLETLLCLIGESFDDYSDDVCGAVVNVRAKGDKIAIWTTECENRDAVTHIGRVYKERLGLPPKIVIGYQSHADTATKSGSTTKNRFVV

[21] = molecular target: T3, Protein Tat (Human immunodeficiency virus type 1 group M subtype B (isolate HXB2)(HIV-1), UniProt P04608); assay type: functional;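 also: tat binding to TAR RNA read out by fluorescence polarization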
T3 sequence (P04608 whole entry): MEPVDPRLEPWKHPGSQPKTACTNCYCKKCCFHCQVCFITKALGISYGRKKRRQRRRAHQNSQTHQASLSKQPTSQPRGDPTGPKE

[22] = viability loss in THP-1 monocytes – THP-1 cells, cytotoxicity control for Vif-APOBEC3G degradation inhibitor project, dose response (AID 1117359); assay type: functional; conditions: THP-1
[23] = test system: H9c2; test: cells; assay type: functional, cell-based; conditions: Rattus norvegicus, H9c2, Myocardium;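 also: confirmatory concentration-response retest of ultra-high-throughput screening hits for modulation of myocardial damage; cell death induced by hydrogen peroxide oxidative stress; compound pretreatment for 60 min then peroxide exposure for 2 h; potency is for protecting the cells against peroxide damage rather than for killing them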

In the case of C[C@H]1CN([C@@H](C)CO)C(=O)Cc2cc(NC(=O)Nc3cccc4ccccc34)ccc2O[C@H]1CN(C)Cc1ccc(C(=O)Nc2ccccc2N)cc1, the AC50 [1] is reported as 3.39 µM (active).

In the case of CC(C)(C)NCc1cc(Br)ccc1OCc1cccs1, the CC50 [2] is reported as > 40 µM (active).

With COC(=O)c1sc2nc(SCc3cccc(F)c3)n(N)c(=O)c2c1C the EC50 [3] was > 99 µM (inactive) and the EC50 [4] was > 99 µM (inactive).

For Cc1nc2ccc([N+](=O)[O-])cc2c(=O)n1Cc1ccc([N+](=O)[O-])cc1, the IC50 [5] was 9.22 µM (active) and the IC50 [6] was 8.3 µM (active).

For C=CCn1c(SCc2ccc(Br)cc2F)nc2cc(C(=O)O)ccc2c1=O, the IC50 [5] was 11.4 µM (active) and the IC50 [6] was 10.9 µM (active).

With N=c1oc2ccc(Cl)cc2cc1C(=O)NC1CCCCCC1 the CC50 [2] was 24 µM (active).

With O=C(Nc1cccc(S(=O)(=O)Nc2ccc(Cl)cc2)c1)c1ccc(Cl)nc1 the IC50 [7] was 49.5 µM (inactive), the AC50 [8] was 3.31 µM (active) and the AC50 [9] was 0.606 µM (active). The AC50 [10] was 2.63 µM (active) and the AC50 [11] was 11.7 µM (active).

In the case of CC(C)CC(=O)NC(=S)Nc1cccc2nsnc12, the EC50 [12] is reported as 1.81 µM (active), the EC50 [13] is reported as 7.93 µM (active) and the EC50 [14] is reported as 2.92 µM (active).

In the case of Cc1nc2c(OCCC3CCCCC3)cccn2c1N(C)C(=O)CCC1CCCC1, the AC50 [15] is reported as 9.83 µM (active) and the AC50 [16] is reported as 7.16 µM (active).

For Cc1ccc(S(=O)(=O)N[N-][C+]2CCC(C(C)(C)C)CC2)cc1[N+](=O)[O-], the IC50 [5] was 53 µM (inactive) and the IC50 [6] was 80 µM (inactive).

In the case of CC(C)C[C@@]12C(=O)N(c3ccc(Br)cc3)C(=O)N1[C@H](c1ccc(Br)cc1)[C@@H]1C(=O)N(C(C)(C)C)C(=O)[C@@H]12, the IC50 [5] is reported as 15.9 µM (active) and the IC50 [6] is reported as 14.6 µM (active).

In the case of COc1cc(OC)cc(-c2cc3nc(C)c(CCC(=O)NCc4ccccc4)c(C)n3n2)c1, the EC50 [17] is reported as 8.43 µM (active), the EC50 [18] is reported as 9.35 µM (active) and the EC50 [19] is reported as 9.84 µM (active). The IC50 [7] was > 80 µM (inactive).

For C[C@@H]1CN([C@@H](C)CO)C(=O)Cc2cc(NS(=O)(=O)c3ccc(F)cc3)ccc2O[C@@H]1CN(C)S(=O)(=O)c1ccc(Cl)cc1, the AC50 [1] was 3.3 µM (active).

For COc1cc(CN(C(=O)c2ccco2)c2ccc(C)cc2)ccc1O, the IC50 [20] was > 64 µM (inactive), the IC50 [21] was 9.05 µM (inconclusive) and the CC50 [22] was > 40 µM (active).

For Cc1noc(C)c1S(=O)(=O)Nc1ccc2c(c1)CC(=O)N([C@@H](C)CO)C[C@@H](C)[C@@H](CN(C)Cc1ccc(C(=O)Nc3ccccc3N)cc1)O2, the AC50 [1] was 2.56 µM (active).

With O=C(NN1C(=O)/C(=C/c2nc3ccccc3[nH]2)SC1=S)c1ccccc1Cl the EC50 [12] was 25.8 µM (inactive), the EC50 [13] was > 79.4 µM (not active) and the EC50 [14] was 44.5 µM (not active).

For C[C@H]1CN([C@@H](C)CO)C(=O)Cc2cc(NC(=O)Nc3ccc4c(c3)OCO4)ccc2O[C@@H]1CN(C)Cc1ccc(C(F)(F)F)cc1, the AC50 [1] was 4.86 µM (active).

In the case of Cc1c(CCC(=O)O)c(=O)oc2cc3oc4c(c3cc12)CCCC4, the IC50 [7] is reported as > 80 µM (inactive).

With CC(C)Sc1ncnc2c1oc1ccccc12 the EC50 [12] was 39.2 µM (inactive), the EC50 [13] was > 79.4 µM (not active) and the EC50 [14] was 26.2 µM (not active).

In the case of Nc1nc(-c2c[nH]c3ccccc23)cs1, the EC50 [12] is reported as > 26.5 µM (inactive), the EC50 [13] is reported as > 79.4 µM (not active) and the EC50 [14] is reported as 24.2 µM (not active). For the same molecule, the IC50 [23] was > 79 µM (inactive).

Source: ChEMBL document CHEMBL1201862, “PubChem BioAssay data set” (2004)
